# Key:
# [1] = test system: crabgrass (Digitaria sanguinalis, DIGSA); assay: Post-emergent evaluation; assay type: in vivo; details: after 2 weeks
# Description: (§1) Seeds of the desired test plant species were planted in Grace-Sierra MetroMix® 306 planting mixture, which typically has a pH of 6.0 to 6.8 and an organic matter content of about 30 percent, in plastic pots with a surface area of 64 square centimeters. When required to ensure good germination and healthy plants, a fungicide treatment and/or other chemical or physical treatment was applied. The plants were grown for 7-21 days in a greenhouse with an approximate 15 hr photoperiod which was maintained at about 23-29° C. during the day and 22-28° C. during the night. Nutrients and water were added on a regular basis and supplemental lighting was provided with overhead metal halide 1000-Watt lamps as necessary. The plants were employed for testing when they reached the first or second true leaf stage.
# (§2) A weighed amount, determined by the highest rate to be tested, of each test compound was placed in a 20 mL glass vial and was dissolved in 4 mL of a 97:3 v/v (volume/volume) mixture of acetone and dimethyl sulfoxide (DMSO) to obtain concentrated stock solutions. […] The concentrated stock solutions obtained were diluted with an aqueous mixture containing acetone, water, isopropyl alcohol, DMSO, Atplus 411F crop oil concentrate, and Triton X-155 surfactant in a 48.5:39:10:1.5:1.0:0.02 v/v ratio to obtain spray solutions of known concentration. The solutions containing the highest concentration to be tested were prepared by diluting 2 mL aliquots of the stock solution with 13 mL of the mixture and lower concentrations were prepared by serial dilution of the stock solution. Approximately 1.5 mL aliquots of each solution of known concentration were sprayed evenly onto each of the test plant pots using a DeVilbiss atomizer driven by compressed air pressure of 2 to 4 psi ([…]) to obtain thorough coverage of each plant. Control plants were sprayed in the same manner with the aqueous mixture. In this test an application rate of 1 ppm results in the application of approximately 1 g/Ha.
# (§3) The treated plants and control plants were placed in a greenhouse as described above and watered by sub-irrigation to prevent wash-off of the test compounds. After 2 weeks the condition of the test plants as compared with that of the untreated plants was determined visually and scored on a scale of 0 to 100 percent where 0 corresponds to no injury and 100 corresponds to complete kill. Species abbreviations as described for Table I with the following additions: soybean (Glycine max, GLXMA), rape (Brassica napus, BRSNN), chickweed (Stellaria media, STEME), cocklebur (Xanthium strumarium XANST), lambsquarters (Chenopodium album, CHEAL), violet (Viola tricolor, VIOTR), bindweed (Polygonum convolvulus, POLCO), spurge (Euphorbia heterophylla, EPHHL), Canada thistle (Cirsium arvense, CIRAR), corn (Zea mays, ZEAMX), rice (Oryza sativa, ORYSA), wheat (Triticum aestivum, TRZAS), crabgrass (Digitaria sanguinalis, DIGSA), shattercane (Sorghum vulgare, SORVU) and yellow nutsedge (Cyperus esculentus, CYPES).
# (§4) By applying the well-accepted probit analysis as described by J. Berkson in Journal of the American Statistical […], 48, 565 (1953) and by D. Finney in “Probit Analysis” Cambridge University Press (1952), similar data can be used to calculate GR80 values, which are defined as growth reduction factors that correspond to the effective dose of herbicide required to kill or control 80 percent of a target plant. Species abbreviations are as previously defined.
# [2] = test system: yellow nutsedge (Cyperus esculentus, CYPES); assay: Post-emergent evaluation; assay type: in vivo; details: after 2 weeks
# Description: as §1, §2, §3, §4
smiles,measurement,setting,value
"C=C(CO)C(C)(O)CC(=O)O (stereo not shown) [methylidene mevalonate, 3-hydroxy-4-(hydroxymethyl)-3-methylpent-4-enoic acid]",Postemergent % Control,[1]; spray concentration 125 ppm,0%
same,Postemergent % Control,[1]; spray concentration 250 ppm,10%
same,Postemergent % Control,[1]; spray concentration 500 ppm,50%
same,Postemergent % Control,[1]; spray concentration 1000 ppm,70%
same,Postemergent % Control,[1]; spray concentration 2000 ppm,80%
same,Postemergent % Control,[2]; spray concentration 125 ppm,30%
same,Postemergent % Control,[2]; spray concentration 250 ppm,70%
same,Postemergent % Control,[2]; spray concentration 500 ppm,90%
same,Postemergent % Control,[2]; spray concentration 1000 ppm,95%
same,Postemergent % Control,[2]; spray concentration 2000 ppm,95%

# Reference: patent US7393812B2, “Methylidene mevalonates and their use as herbicides” (Dow AgroSciences LLC, priority 2004, dated 2008)
